Measurements as given in PMC10494213 (iScience, 2023).
“Also recorded” adds a separate entry of the source.

What was measured:
[1] = cited from earlier work
[2] = carp, Coote natural Marsh in Canada; cited from earlier work
fish = settings: cited from earlier work
[3] = EEC 3, 10, 30 μg/L; cited from earlier work
spermatozoa = settings: 2.0 and 20 mg/L; cited from earlier work
[4] = Uptake of CMZ in zebrafish muscle during 7-day water exposure; assay type: in vivo, zebrafish (Danio rerio); settings: male, other: water exposure (waterborne); for concentration at 7 d: muscle; for Kp at 7 d: muscle/plasma
[5] = test system: acetylcholinesterase (AChE); test: AChE in whole zebrafish by ELISA after 7-day CMZ exposure; assay type: in vivo; settings: 7-day exposure 1, 10, 100, 1000 μg/L vs control group
[6] = test system: gamma-aminobutyric acid (GABA); test: GABA level in whole zebrafish by ELISA after 7-day CMZ exposure; assay type: in vivo; settings: seven days of CMZ exposure vs control group (p<0.05; 1000 μg/L p<0.01)
glutamic acid (Glu) = test: Glu level in whole zebrafish by ELISA after 7-day CMZ exposure; assay type: in vivo; settings: seven days of CMZ exposure vs control group (p<0.05; 1000 μg/L p<0.01)
zebrafish larvae = test: Zebrafish larval motor behavior; assay type: in vivo; settings: 7 days exposure
abat = test: Real-time PCR of neurotransmitter-related gene abat; assay type: in vivo, zebrafish; settings: seven days, four concentrations (1, 10, 100, 1000 μg/L) vs control, p<0.05
acetylcholine (ACh) = test: ACh level in whole zebrafish by ELISA after 7-day CMZ exposure; assay type: in vivo; settings: 7-day exposure 1, 10, 100, 1000 μg/L vs control group
GABA = settings: zebrafish embryos, CMZ 1, 10, 100 μg/L; cited from earlier work
[7] = human; cited from earlier work
[8] = test system: zebrafish embryos and larvae; settings: 1 μg/L; cited from earlier work
[9] = Measured fish plasma concentration; assay type: in vivo, zebrafish (Danio rerio); settings: for Measured FPC/Predicted FPC / Measured FPC: 7-day exposure; for Measured FPC: mean ± SD, n = 3
Glu = settings: zebrafish embryos, CMZ 1, 10, 100 μg/L; cited from earlier work
AChE = settings: muscle (10000 μg/L) and head (10 and 10000 μg/L), exposure of 63 days, p<0.05; cited from earlier work

SMILES: CCC(=O)OCC(=O)[C@@]1(OC(=O)CC)[C@@H](C)C[C@H]2[C@@H]3CCC4=CC(=O)C=C[C@]4(C)[C@@]3(Cl)[C@@H](O)C[C@@]21C [Beclomethasone Dipropionate, beclomethasone dipropionate]
- log Kow [1]: 3.69

SMILES: O=C1NC(=O)C(c2ccccc2)(c2ccccc2)N1 [phenytoin]
- measured BCFs relative to the predicted BCFs [2]: ≤ 3 times

SMILES: C#C[C@]1(O)CC[C@H]2[C@@H]3CCC4=CC(=O)CC[C@@H]4[C@H]3CC[C@@]21CC [Levonorgestrel]
- log Kow [1]: 3.72

SMILES: O=C(Nc1ccc(Cl)cc1)Nc1ccc(Cl)c(Cl)c1 [triclocarban]
- measured BCFs relative to the predicted BCFs [2]: ≤ 3 times

SMILES: CN[C@H]1CC[C@@H](c2ccc(Cl)c(Cl)c2)c2ccccc21 [Sertraline]
- shelter-seeking behavior (fish; when the FPC exceeded the human therapeutic threshold): statistically significant reductions
- Predicted FPC vs Measured FPC [3]: very close

SMILES: O=C1Nc2ccc(Cl)cc2C(c2ccccc2)=NC1O (stereo not shown) [Oxazepam]
- behavior in the novel tank diving test (fish; fish exposed to 4.7 μg/L): statistically significant behavioral effect

SMILES: NC(=O)N1c2ccccc2C=Cc2ccccc21 [CMZ, Carbamazepine]
- percentage of spermatozoa motile and velocity (spermatozoa): significantly reduce
- concentration at 7 d ([4]; 10 μg/L): 35.4 ± 7.9 ng/g
- concentration at 7 d ([4]; 100 μg/L): 420 ± 77.5 ng/g
- concentration at 7 d ([4]; 1000 μg/L): 2330 ± 127 ng/g
- Kp at 7 d ([4]; 10 μg/L): 0.26 ± 0.06
- Kp at 7 d ([4]; 100 μg/L): 0.14 ± 0.03
- Kp at 7 d ([4]; 1000 μg/L): 0.54 ± 0.03
- level of AChE [5]: gradually decreased; also recorded: significantly decreased
- Dlipw ([1]; pH 7.4, ref http://www.chemspider.com/Chemical): 2.92
- GABA level [6]: appreciably increased
- Glu level (glutamic acid (Glu)): appreciably increased
- total movement distance of the larvae (zebrafish larvae; 1000 μg/L, p<0.05): significantly higher than that of the control group
- total distance traveled by larvae (zebrafish larvae; 1, 10, 100 μg/L, p>0.05): slightly lower than that of the control group, but there was no significant difference
- expression of the abat gene (abat): significantly down-regulated
- level of ACh (acetylcholine (ACh)): gradually decreased; also recorded: significantly decreased
- GABA concentration (GABA): increased
- maximum HTPC [7]: 12 mg/L
- movement and rest percentage of zebrafish embryos and larvae [8]: significantly affected
- Measured FPC/Predicted FPC ([9]; external 1 μg/L): 1.84 ± 0.27
- Measured FPC ([9]; external 1 μg/L (nominal)): 25.47 ± 3.78 µg/L
- Measured FPC ([9]; external 10 μg/L (nominal)): 1311.10 ± 80.26 µg/L
- Measured FPC/Predicted FPC ([9]; external 100 μg/L): 2.14 ± 0.08
- Measured FPC ([9]; external 100 μg/L (nominal)): 2953.30 ± 109.20 µg/L
- Measured FPC/Predicted FPC ([9]; external 1000 μg/L): 0.31 ± 0.01
- measured FPC value as share of the predicted value ([9]; external 1000 μg/L): 31.05%
- concentration at 7 d ([9]; male, AB, zebrafish, plasma, other: water exposure (waterborne), corresponding FPCs, low ambient exposure 1 and 10 μg/L): 25.5 to 1310 ng/mL
- ER values ([9]; ratio of HTPC and FSSPC, Equation 3, all exposure concentrations): < 1000
- Glu concentration (Glu): reduced
- AChE activity (AChE): considerably increased

SMILES: CCN(CC)C(=O)c1cccc(C)c1 [N,N-diethyl-m-toluamide]
- measured BCFs relative to the predicted BCFs [2]: ≤ 3 times
